In brackets after ≈: the same amount, converted by molar mass. Activity calls are given as the source filed them. The calls are words filed in the database; no cut-off is given here.
Legend:
Pseudomonas fluorescens [1] = assay: Antibacterial activity against Pseudomonas fluorescens MTCC 2421 assessed as growth inhibition at 1250 ug/mL after 48 hr by agar diffusion method; assay type: functional; conditions: MTCC 2421, 48 h, read-out: DIZ
Penicillium chrysogenum [2] = assay: Antifungal activity against Penicillium chrysogenum MTCC 161 assessed as growth inhibition at 1250 ug/mL after 48 hr by agar diffusion method; assay type: functional; conditions: MTCC 161, 48 h, read-out: DIZ
Escherichia coli [3] = assay: Antibacterial activity against Escherichia coli MTCC 1573 assessed as growth inhibition at 1250 ug/mL after 48 hr by agar diffusion method; assay type: functional; conditions: MTCC 1573, 48 h, read-out: DIZ
Micrococcus luteus [4] = assay: Antibacterial activity against Micrococcus luteus MTCC 1538 assessed as growth inhibition at 1250 ug/mL after 48 hr by agar diffusion method; assay type: functional; conditions: MTCC 1538, 48 h, read-out: DIZ
Bacillus subtilis [5] = assay: Antibacterial activity against Bacillus subtilis MTCC 441 assessed as growth inhibition at 1250 ug/mL after 48 hr by agar diffusion method; assay type: functional; conditions: MTCC 441, 48 h, read-out: DIZ
Pseudomonas aeruginosa [6] = assay: Antibacterial activity against Pseudomonas aeruginosa MTCC 424 assessed as growth inhibition after 24 hr by tube dilution method; assay type: functional; conditions: MTCC 424, 24 h
Bacillus pumilus [7] = assay: Antibacterial activity against Bacillus pumilus MTCC 1456 assessed as growth inhibition at 1250 ug/mL after 48 hr by agar diffusion method; assay type: functional; conditions: MTCC 1456, 48 h, read-out: DIZ
Escherichia coli [8] = assay: Antibacterial activity against Escherichia coli MTCC 1573 assessed as growth inhibition at 100 ug/mL after 48 hr by agar diffusion method; assay type: functional; conditions: for zone of inhibition at 100 µg/mL: MTCC 1573, 48 h, read-out: DIZ
Micrococcus luteus [9] = assay: Antibacterial activity against Micrococcus luteus MTCC 1538 assessed as growth inhibition at 100 ug/mL after 48 hr by agar diffusion method; assay type: functional
Micrococcus luteus [10] = assay: Antibacterial activity against Micrococcus luteus MTCC 1538 assessed as growth inhibition at 500 ug/mL after 48 hr by agar diffusion method; assay type: functional; conditions: MTCC 1538, 48 h, read-out: DIZ
Penicillium chrysogenum [11] = assay: Antifungal activity against Penicillium chrysogenum MTCC 161 assessed as growth inhibition at 750 ug/mL after 48 hr by agar diffusion method; assay type: functional; conditions: MTCC 161, 48 h, read-out: DIZ
Bacillus pumilus [12] = assay: Antibacterial activity against Bacillus pumilus MTCC 1456 assessed as growth inhibition at 500 ug/mL after 48 hr by agar diffusion method; assay type: functional; conditions: MTCC 1456, 48 h, read-out: DIZ
Staphylococcus aureus = assay: Antibacterial activity against Staphylococcus aureus MTCC 1430 assessed as growth inhibition at 750 ug/mL after 48 hr by agar diffusion method; assay type: functional; conditions: MTCC 1430, 48 h, read-out: DIZ
Escherichia coli [13] = assay: Antibacterial activity against Escherichia coli MTCC 1573 assessed as growth inhibition at 250 ug/mL after 48 hr by agar diffusion method; assay type: functional; conditions: MTCC 1573, 48 h, read-out: DIZ
Pseudomonas aeruginosa [14] = assay: Antibacterial activity against Pseudomonas aeruginosa MTCC 424 assessed as growth inhibition at 1000 ug/mL after 48 hr by agar diffusion method; assay type: functional; conditions: MTCC 424, 48 h, read-out: DIZ
Aspergillus niger [15] = assay: Antifungal activity against Aspergillus niger MTCC 2546 assessed as growth inhibition at 1000 ug/mL after 48 hr by agar diffusion method; assay type: functional; conditions: MTCC 2546, 48 h, read-out: DIZ
Pseudomonas fluorescens [16] = assay: Antibacterial activity against Pseudomonas fluorescens MTCC 2421 assessed as growth inhibition at 1000 ug/mL after 48 hr by agar diffusion method; assay type: functional; conditions: MTCC 2421, 48 h, read-out: DIZ
Aspergillus niger [17] = assay: Antifungal activity against Aspergillus niger MTCC 2546 assessed as growth inhibition at 250 ug/mL after 48 hr by agar diffusion method; assay type: functional; conditions: for zone of inhibition at 250 µg/mL: MTCC 2546, 48 h, read-out: DIZ
Bacillus subtilis [18] = assay: Antibacterial activity against Bacillus subtilis MTCC 441 assessed as growth inhibition at 100 ug/mL after 48 hr by agar diffusion method; assay type: functional; conditions: for zone of inhibition at 100 µg/mL: MTCC 441, 48 h, read-out: DIZ
Penicillium chrysogenum [19] = assay: Antifungal activity against Penicillium chrysogenum MTCC 161 assessed as growth inhibition at 100 ug/mL after 48 hr by agar diffusion method; assay type: functional, organism-based
Micrococcus luteus [20] = assay: Antibacterial activity against Micrococcus luteus MTCC 1538 assessed as growth inhibition at 250 ug/mL after 48 hr by agar diffusion method; assay type: functional; conditions: MTCC 1538, 48 h, read-out: DIZ
Penicillium chrysogenum [21] = assay: Antifungal activity against Penicillium chrysogenum MTCC 161 assessed as growth inhibition after 24 hr by tube dilution method; assay type: functional; conditions: MTCC 161, 24 h
Bacillus pumilus [22] = assay: Antibacterial activity against Bacillus pumilus MTCC 1456 assessed as growth inhibition at 750 ug/mL after 48 hr by agar diffusion method; assay type: functional; conditions: MTCC 1456, 48 h, read-out: DIZ
Bacillus pumilus [23] = assay: Antibacterial activity against Bacillus pumilus MTCC 1456 assessed as growth inhibition after 24 hr by tube dilution method; assay type: functional; conditions: MTCC 1456, 24 h

Structure (SMILES) | zone of inhibition at 1250 µg/mL (Pseudomonas fluorescens [1]) [mm] | zone of inhibition at 1250 µg/mL (Penicillium chrysogenum [2]) [mm] | zone of inhibition at 1250 µg/mL (Escherichia coli [3]) [mm] | zone of inhibition at 1250 µg/mL (Micrococcus luteus [4]) [mm] | zone of inhibition at 1250 µg/mL (Bacillus subtilis [5]) [mm] | MIC (Pseudomonas aeruginosa [6]) [µg/mL] | zone of inhibition at 1250 µg/mL (Bacillus pumilus [7]) [mm] | zone of inhibition at 500 µg/mL (Micrococcus luteus [10]) [mm] | zone of inhibition at 750 µg/mL (Penicillium chrysogenum [11]) [mm] | zone of inhibition at 500 µg/mL (Bacillus pumilus [12]) [mm] | zone of inhibition at 750 µg/mL (Staphylococcus aureus) [mm] | zone of inhibition at 250 µg/mL (Escherichia coli [13]) [mm] | zone of inhibition at 1000 µg/mL (Pseudomonas aeruginosa [14]) [mm] | zone of inhibition at 1000 µg/mL (Aspergillus niger [15]) [mm] | zone of inhibition at 1000 µg/mL (Pseudomonas fluorescens [16]) [mm] | growth inhibition (GI) (Penicillium chrysogenum [19]) | zone of inhibition at 250 µg/mL (Micrococcus luteus [20]) [mm] | MIC (Penicillium chrysogenum [21]) [µg/mL] | zone of inhibition at 750 µg/mL (Bacillus pumilus [22]) [mm] | MIC (Bacillus pumilus [23]) [µg/mL] | also measured
O=C1CSC(c2ccccn2)N1c1nnc2c3cc(Cl)ccc3nc-2s1 (configuration not stated) | 21 | 20 | 23 | 19 | 22 | 30 (≈ 75 µM) | 23 | 8 | 15 | 15 | 11 | 11 | 18 | 18 | 17 | inactive | 7 | 200 (≈ 500 µM) | 18 | 50 (≈ 125 µM) | growth inhibition (GI) (Escherichia coli [8]): inactive; growth inhibition (GI) (Micrococcus luteus [9]): inactive; zone of inhibition at 250 µg/mL (Aspergillus niger [17]): 9 mm; growth inhibition (GI) (Bacillus subtilis [18]): inactive
CC1SCC(=O)N1c1nnc2c3ccccc3nc-2s1 (configuration not stated) | 24 | 17 | 20 | 19 | 22 | 30 (≈ 99.2 µM) | 25 | 12 | 12 | 12 | 11 | 10 | 20 | 14 | 21 | inactive | 10 | 250 (≈ 827 µM) | 18 | 30 (≈ 99.2 µM) | zone of inhibition at 100 µg/mL (Escherichia coli [8]): 7 mm; zone of inhibition at 100 µg/mL (Micrococcus luteus [9]; MTCC 1538, 48 h, read-out: DIZ): 8 mm; growth inhibition (GI) (Aspergillus niger [17]): inactive; zone of inhibition at 100 µg/mL (Bacillus subtilis [18]): 10 mm
O=C1CSC(c2ccccn2)N1c1nnc2c3ccccc3nc-2s1 (configuration not stated) | 20 | 17 | 22 | 17 | 18 | 30 (≈ 82.1 µM) | 21 | 11 | 13 | 15 | 10 | 9 | 18 | 15 | 18 | inactive | 8 | 150 (≈ 410 µM) | 17 | 50 (≈ 137 µM) | zone of inhibition at 100 µg/mL (Escherichia coli [8]): 7 mm; growth inhibition (GI) (Micrococcus luteus [9]): inactive; zone of inhibition at 250 µg/mL (Aspergillus niger [17]): 8 mm; zone of inhibition at 100 µg/mL (Bacillus subtilis [18]): 8 mm

Source: ChEMBL document CHEMBL3046001, “4-Thiazolidinone and 1-thia-3,4,9-triaza fluorene conjugates: synthesis, characterization and antimicrobial screening” (2013)
